Source: patent publication US9113629B2, “4-amino-6-(4-substituted-phenyl)-picolinates and 6-amino-2-(4-substituted-phenyl)-pyrimidine-4-carboxylates and their use as herbicides” (DOW AGROSCIENCES LLC, priority 2013, dated 2015)
Where two headings read alike, the source gives them in different places.

Tests used:
[1] = test system: Key Broadleaf Weed and Crop Species; experiment: Post-emergent Test II herbicidal activity (Table 5); type: in vivo; details: post-emergence, 336 h, post-emergent, 14 days after application; for pest or weed control at 70 g/ha: 70 g ai/ha; for pest or weed control at 140 g/ha: 140 g ai/ha
Outline: (§1)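 Greenhouse-grown plants at first or second true leaf stage were sprayed post-emergence with compound in acetone/DMSO-based aqueous spray containing crop oil concentrate and surfactant, at 187 L/ha, highest rate plus ½× to 1/16× dilutions. After 14 d, injury was scored visually versus untreated plants, 0 (none) to 100% (complete kill).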

[2] = test system: Key Grass and Sedge Weeds as well as Grass Crops; experiment: Post-emergent Test II herbicidal activity (Table 6); type: in vivo; details: post-emergence, 336 h; for pest or weed control at 70 g/ha: application rate 70 g ai/ha; for pest or weed control at 140 g/ha: application rate 140 g ai/ha
Outline: as §1

[3] = ABUTH: velvetleaf (Abutilon theophrasti), read-out: Visual Growth Reduction (%) 14 Days After Application ABUTH
[4] = AMARE: redroot pigweed (Amaranthus retroflexus), read-out: Visual Growth Reduction (%) 14 Days After Application AMARE
[5] = BRSNN: oilseed-rape, canola (Brassica napus), read-out: Visual Growth Reduction (%) 14 Days After Application BRSNN
[6] = CHEAL: lambsquarters (Chenopodium album), read-out: Visual Growth Reduction (%) 14 Days After Application CHEAL
[7] = EPHHL: wild poinsettia (Euphorbia heterophylla), read-out: Visual Growth Reduction (%) 14 Days After Application EPHHL
[8] = HELAN: sunflower (Helianthus annuus), read-out: Visual Growth Reduction (%) 14 Days After Application HELAN
[9] = VIOTR: wild pansy (Viola tricolor), read-out: Visual Growth Reduction (%) 14 Days After Application VIOTR
[10] = Triticum aestivum, TRZSS (wheat), read-out: Visual Growth Reduction (%) 14 Days After Application, TRZSS
[11] = CYPES: yellow nutsedge (Cyperus esculentus), read-out: Visual Growth Reduction (%) 14 Days After Application, CYPES
[12] = DIGSA: crabgrass (Digitaria sanguinalis), read-out: Visual Growth Reduction (%) 14 Days After Application, DIGSA
[13] = ECHCG: barnyardgrass (Echinochloa crus-galli), read-out: Visual Growth Reduction (%) 14 Days After Application, ECHCG
[14] = ORYSA: rice (Oryza sativa), read-out: Visual Growth Reduction (%) 14 Days After Application, ORYSA
[15] = SETFA: giant foxtail (Setaria faberi), read-out: Visual Growth Reduction (%) 14 Days After Application, SETFA
[16] = SORVU: grain sorghum (Sorghum vulgare), read-out: Visual Growth Reduction (%) 14 Days After Application, SORVU
[17] = ZEAMX: maize, corn (Zea mays), read-out: Visual Growth Reduction (%) 14 Days After Application, ZEAMX

Compound	melting point [°C]	pest or weed control at 70 g/ha [1, 3] [%]	pest or weed control at 140 g/ha [1, 3] [%]	pest or weed control at 70 g/ha [1, 4] [%]	pest or weed control at 140 g/ha [1, 4] [%]	pest or weed control at 70 g/ha [1, 5] [%]	pest or weed control at 140 g/ha [1, 5] [%]	pest or weed control at 70 g/ha [1, 6] [%]	pest or weed control at 140 g/ha [1, 6] [%]	pest or weed control at 70 g/ha [1, 7] [%]	pest or weed control at 140 g/ha [1, 7] [%]	pest or weed control at 70 g/ha [1, 8] [%]	pest or weed control at 140 g/ha [1, 8] [%]	pest or weed control at 70 g/ha [1, 9] [%]	pest or weed control at 70 g/ha [2, 10] [%]	pest or weed control at 140 g/ha [2, 10] [%]	pest or weed control at 70 g/ha [2, 11] [%]	pest or weed control at 140 g/ha [2, 11] [%]	pest or weed control at 70 g/ha [2, 12] [%]	pest or weed control at 70 g/ha [2, 13] [%]	other results
COC(=O)c1nc(-c2ccc(Br)cc2F)cc(N)c1Cl [Compound 93]	98.9 to 101.6	95 to 100	95 to 100	95 to 100	95 to 100	0 to 29	60 to 74	85 to 94	95 to 100	95 to 100	95 to 100	85 to 94	85 to 94	30 to 44	45 to 59	45 to 59	95 to 100	95 to 100	75 to 84	85 to 94	pest or weed control at 140 g/ha [2, 12]: 95 to 100%; pest or weed control at 140 g/ha [2, 13]: 85 to 94%; pest or weed control at 70 g/ha [2, 14]: 0 to 29%; pest or weed control at 140 g/ha [2, 14]: 0 to 29%; pest or weed control at 70 g/ha [2, 15]: 75 to 84%; pest or weed control at 140 g/ha [2, 15]: 75 to 84%; pest or weed control at 70 g/ha [2, 16]: 85 to 94%; pest or weed control at 140 g/ha [2, 16]: 95 to 100%; pest or weed control at 70 g/ha [2, 17]: 60 to 74%; pest or weed control at 140 g/ha [2, 17]: 75 to 84%
Nc1cc(-c2cc(F)c(I)cc2F)nc(C(=O)O)c1Cl [Compound 131]	173 to 175	95 to 100	95 to 100	95 to 100	95 to 100	95 to 100	95 to 100	95 to 100	95 to 100	95 to 100	95 to 100	85 to 94	95 to 100	95 to 100	60 to 74	75 to 84	85 to 94	85 to 94	75 to 84	95 to 100	pest or weed control at 140 g/ha [1, 9]: 95 to 100%; pest or weed control at 140 g/ha [2, 12]: 75 to 84%; pest or weed control at 140 g/ha [2, 13]: 95 to 100%; pest or weed control at 70 g/ha [2, 14]: 0 to 29%; pest or weed control at 140 g/ha [2, 14]: 30 to 44%; pest or weed control at 70 g/ha [2, 15]: 95 to 100%; pest or weed control at 140 g/ha [2, 15]: 95 to 100%; pest or weed control at 70 g/ha [2, 16]: 60 to 74%; pest or weed control at 140 g/ha [2, 16]: 75 to 84%; pest or weed control at 70 g/ha [2, 17]: 85 to 94%; pest or weed control at 140 g/ha [2, 17]: 85 to 94%
COC(=O)c1nc(-c2cc(F)c(Br)cc2F)c(F)c(N)c1Cl [Compound 51, methyl 4-amino-6-(4-bromo-2,5-difluorophenyl)-3-chloro-5-fluoropicolinate]	153 to 154	95 to 100	95 to 100	95 to 100	95 to 100	95 to 100	95 to 100	95 to 100	95 to 100	95 to 100	95 to 100	95 to 100	95 to 100	95 to 100	60 to 74	85 to 94	95 to 100	95 to 100	95 to 100	95 to 100	pest or weed control at 140 g/ha [1, 9]: 95 to 100%; pest or weed control at 140 g/ha [2, 13]: 95 to 100%; pest or weed control at 70 g/ha [2, 14]: 0 to 29%; pest or weed control at 140 g/ha [2, 14]: 0 to 29%; pest or weed control at 70 g/ha [2, 15]: 95 to 100%; pest or weed control at 140 g/ha [2, 15]: 95 to 100%; pest or weed control at 70 g/ha [2, 16]: 95 to 100%; pest or weed control at 140 g/ha [2, 16]: 95 to 100%; pest or weed control at 70 g/ha [2, 17]: 85 to 94%; pest or weed control at 140 g/ha [2, 17]: 85 to 94%
